“Also recorded” adds a separate entry of the source.

For data set [1], the system named is PCNA (proliferating cell nuclear antigen). Put plainly: Immunostaining of organ culture kidney sections. Type of data set: cell-based, mouse. Conditions: not shown. The source says: Since GMZ affects Hsp90 client proteins involved in cell proliferation, it was hypothesized that GMZ could also be inhibiting cell proliferation in the metanephric organ cultures. To test this idea, organ culture sections were immunostained with an antibody to PCNA (proliferating cell nuclear antigen), a marker of cell proliferation.

The subject of another data set is total ERK. The data set is described as follows: Western blot of treated ADPKD cells. Type of data set: cell-based, human. Conditions: 50 uM for 48 h. As to the method:
(§1) Gamendazole (GMZ) was tested to determine if treatment decreases Hsp90 client protein levels in ADPKD cells. Briefly, ADPKD cells were treated with 50 μM GMZ for 24, 48 or 72 hours. Proteins from 20 μg total cell lysate were separated by SDS-PAGE, transferred to a PVDF membrane and probed with antibodies against the Hsp90 client proteins ErbB2 (185 kD), and cdk4 (34 kD). […] GMZ decreased the total levels of these client proteins in ADPKD cells. A decrease in P-ERK correlates with the inhibition of cell proliferation by GMZ. […] The data also provides an indication that other lonidamine derivatives may be useful in therapies for PKD.
On the technique in general: Immunoblotting shows a protein as a band on a membrane.

In another data set the test system is P-ERK. The data set is described as follows: Western blot of treated ADPKD cells. The data set is classed as cell-based, human. The settings on record: 50 uM for 48 h, n=2. The method, then: as §1
The test system of data set [2] is E15.5 kidneys from Pkd1+/+, +/−, and −/− mice. Put plainly: Metanephric organ culture, cAMP-driven cyst formation. Type of data set: cell-based, mouse. As to the method:
To determine whether gamendazole alters the cyst-forming process in response to cAMP, kidneys from Pkd1+/+, +/−, and −/− mice were placed in metanephric culture at E15.5 and treated with 100 uM 8-Br-cAMP with or without gamendazole (100 nM-10 uM) for 4 days.
The length of time that Gamendazole was able to block fluid secretion in embryonic kidneys using a washout technique was studied. Briefly, E15.5 kidneys were treated with cAMP alone or with cAMP plus 5 microM Gamendazole. 24 hrs later, culture medium was removed from the GMZ+cAMP-treated kidneys and was replaced with fresh medium containing cAMP only. […] This was evident by the reduced number and size of the tubule dilations on Day 4.

A further data set concerns ErbB2. The data set is described as follows: Western blot of treated ADPKD cells. The data set is classed as cell-based, human. The settings on record: 50 uM. As to the method: (§2) Gamendazole (GMZ) was tested to determine if treatment decreases Hsp90 client protein levels in ADPKD cells. Briefly, ADPKD cells were treated with 50 μM GMZ for 24, 48 or 72 hours. Proteins from 20 μg total cell lysate were separated by SDS-PAGE, transferred to a PVDF membrane and probed with antibodies against the Hsp90 client proteins ErbB2 (185 kD), and cdk4 (34 kD).

For a further data set, the system named is Cdk4. The data set is described as follows: Western blot of treated ADPKD cells. Type of data set: cell-based, human. Conditions: 50 uM. The method, then: as §2
The subject of data set [3] is CFTR-mediated chloride transport. The data set is described as follows: Forskolin-induced short-circuit current in ADPKD cell monolayers. The data set is classed as cell-based, human. As to the method:
To determine if the ability of GMZ to inhibit cAMP-stimulated tubule expansion was due to inhibition of CFTR-mediated chloride transport, forskolin-induced short-circuit current was measured with cyst-lining epithelial cells derived from two human ADPKD (autosomal dominant PKD) kidneys. FSK is an adenylyl cyclase agonist, which increases the levels of intracellular cAMP. The cAMP then opens the CFTR chloride channel. […] The bars in FIG. 12G show the results for the three treatments. 1 microM gamendazole applied to the apical side of the cell monolayer was effective in inhibiting greater than 40 percent of the forskolin-stimulated transepithelial chloride transport.

The subject of a further data set is rats. Put plainly: Animal tolerance studies of GMZ. The data set is classed as in vivo, rat. The source says:
The parent compound of GMZ, Lonidamine, inhibits the chloride channel CFTR, interferes with cellular energy output and has been used as an anticancer drug. […] GMZ binds directly to Hsp90-beta and eukaryotic elongation factor eEF1A as shown by affinity chromatography and direct binding studies.

For the next data set, the system named is ADPKD cells. The data set is described as follows: Wound-healing scratch assay (cell migration). The data set is classed as cell-based, human. As to the method: Gamendazole (GMZ) was tested to determine if it inhibits cell migration. Briefly, ADPKD cells were plated on a 12-well cell culture plate in 5% FBS-containing medium and allowed to form a confluent monolayer. The monolayer was wounded using a P-200 pipette tip and the medium changed to include increasing concentrations of gamendazole. Images of three different fields per well were captured at 10× magnification immediately after wounding and at 4, 8 and 24 hours post-wounding. GMZ was tested at 0, 10, 50, and 100 uM. Area of the wound was measured at each time point using NIH Image J program. Percentage of wound closure was calculated by subtracting the area of the wound at any given time point from the 0 h wound area expressed as a percentage of the 0 h wound area. Statistical analysis was done to compare the GMZ-treated cells to untreated cells at each time point using One-way ANOVA and the Tukey HSD test for pair-wise comparisons.

Another data set has as its system Male Long Evans rats. Put plainly: In vivo antispermatogenic testing in Long Evans rats.
In data set [4] the test system is Salmonella Typhimurium TA 100. The data set is described as follows: Ames test for mutagenicity (plate assay, colony count). The settings on record: 48 hours at 37° C. On the technique in general: The Ames test uses bacterial strains that need an amino acid and regain growth without it when mutated back.
Data set [5] deals with ID8 cells (ovarian cancer). The data set is described as follows: ID8 cell growth in vitro. Type of data set: cell-based. The method, then: When RC-MC-110 is added to a variety of cancer cells: ovarian (ID8), taxol-resistant ovarian (ID8), prostate (LNCaP and PC-3), kidney (293).
Where [6] appears, read: 100 nM-10 uM for 4 days with 100 uM 8-Br-cAMP.

Consider `O=C(O)CCc1nn(Cc2ccc(Cl)cc2Cl)c2cc(C(F)(F)F)ccc12` [GMZ, 3-[1-(2,4-dichlorobenzyl)-6-trifluoromethyl-1H-indazol-3-yl]-propionic acid], for which the PCNA staining entry in [1] was “overall less staining, and fewer tubule cells staining for PCNA”. The “total ERK levels” value with total ERK was “unchanged”. For the same molecule, in the data set on P-ERK, the P-ERK levels is given as 71.2 % of controls. In data set [2] (setting [6]), the “Toxicity to the kidneys in metanephric culture” value is on record as “did not appear to be toxic to the kidneys” and the cystic dilation entry is listed as “significantly inhibited cystic dilation”. Besides, the “cyst formation in Pkd1+/− kidneys” value in data set [2] (1-2 uM) is reported as “essentially preventing cyst formation”. Also, in data set [2] (5-10 uM, data not shown), the “cyst reduction in Pkd1−/− kidneys” value is “dramatic cyst reduction”. In data set [2] (5 microM), the “cAMP-mediated cyst formation in heterozygous and null metanephric kidneys” value is “significantly inhibited cAMP-mediated cyst formation”; the “cystic index, three Pkd1 genotypes” value is “dramatic decrease in cystic index”. In [2] (5 microM for 24 hrs, then cAMP only, read on Day 4), the “Persistence of inhibition after washout” value is reported as “the inhibitory effects appeared to persist in culture”. Further, in data set [2] (compared to untreated counterparts), the “Size of kidneys in organ culture” value is “somewhat reduced in size”. In the data set with ErbB2, the “levels of the Hsp90 client protein ErbB2” value was “decreased levels”. Moreover, in the data set on Cdk4, the “levels of the Hsp90 client protein Cdk4” value is “decreased levels”. Further, the inhibition at 1 µM in data set [3] (Homo sapiens, 1 microM applied to the apical side, 10 microM forskolin, read-out: inhibition of the forskolin-stimulated transepithelial chloride transport) was above 40%. The “forskolin-induced Cl-secretion (short-circuit current)” value in data set [3] (human ADPKD cells, in the presence of benzamil) is listed as “almost completely block”. The “Concentration needed to inhibit CFTR-mediated chloride channel activity, compared with lonidamine” value in [3] (human cyst epithelial cells (ADPKD cells)) was “at much lower concentration; also recorded: effective at lower doses than was Lonidamine itself”. Besides, in the data set on rats (25 mg/kg of IP dosage), the histopathology entry is “no apparent histopathology in any organ”. In the data set with rats (rats, five days post-treatment), the “behavioral or body weight changes” value was “no evidence of behavioral or body weight changes”. Moreover, in the data set on ADPKD cells (10, 50 and 100 uM, 4, 8 and 24 hours post-wounding), the “cell migration (percentage of wound closure)” value was “significant inhibition of cell migration at all concentrations of GMZ tested and at all time points”. In addition, the wound closure entry with ADPKD cells (even at low concentration (10 uM)) was “unable to accomplish wound closure”.

Turning to `O=C(O)/C=C/c1nn(Cc2ccc(Cl)cc2Cl)c2cc(C(F)(F)F)ccc12` [RC-MC-110, trans 3-[1-(2,4-dichlorobenzyl)-6-trifluoromethyl-1H-indazol-3-yl]-acrylic acid], the “Mortality (25 mg/kg)” value with Male Long Evans rats (25 mg/kg single i.p. injection, […]) was 0/5. Moreover, in the data set on Male Long Evans rats (25 mg/kg single i.p. injection, animals responding out of animals surviving, five days following injection), the “Response 25 mg/kg” value is 5/5. Further, the “Mortality (200 mg/kg)” value in the data set with Male Long Evans rats (200 mg/kg single i.p. injection, […]) is given as 3/5. Besides, the “Response 200 mg/kg” value in the data set with Male Long Evans rats (200 mg/kg single i.p. injection, animals responding out of animals surviving, five days following injection) was 2/2. For the same molecule, the “Ames test (+)S9 0.1 mg/pl.” value in [4] ((+)S9 mix, 0.1 mg/pl.) is given as “Pass”. For the same molecule, in [4] ((+)S9 mix, 1 mg/pl.), the “Ames test (+)S9 1 mg/pl.” value is on record as “Pass”. The “Ames test (+)S9 10 mg/pl.” value in [4] ((+)S9 mix, 10 mg/pl.) is listed as “Pass”. Moreover, the “Ames test (−)S9 0.1 mg/pl.” value in data set [4] ((−)S9 mix, 0.1 mg/pl.) is listed as “Pass”. The “Ames test (−)S9 1 mg/pl.” value in data set [4] ((−)S9 mix, 1 mg/pl.) is recorded as “Pass”. The “Ames test (−)S9 10 mg/pl.” value in data set [4] ((−)S9 mix, 10 mg/pl.) is recorded as “Pass”. Besides, the “Sensitivity of ID8 cell growth, compared with lonidamine” value in data set [5] is “more sensitive to RC-MC-110 than lonidamine”.

The term inhibition denotes the share of the control response that was lost under treatment.

Values taken from patent US8362031B2, “Lonidamine analogues and treatment of polycystic kidney disease” (University of Kansas, priority 2004, dated 2013).
